According to patent US20130157954A1, “METHODS FOR TREATMENT OR PROPHYLAXIS OF KIDNEY OR LIVER DYSFUNCTION” (NPS PHARMACEUTICALS, INC., priority 2010, published 2013):

Assay: Example 2: liver biomarkers (albumin, gamma glutamyl transferase, total bilirubin, ALT, AST, ALP) in short bowel syndrome patients, every four weeks for 24 weeks; also sorted by >10% change from baseline
Assay type: in vivo, Human
Conditions: 0.05 mg/kg/d; for Alkaline Phosphatase: subjects Within 10% of Baseline / Alkaline Phosphatase: subjects with >10% decrease from Baseline / Alkaline Phosphatase: subjects with >10% increase from Baseline / Bilirubin: subjects Within 10% of Baseline / Bilirubin: subjects with >10% decrease from Baseline / Bilirubin: subjects with >10% increase from Baseline / ALT: subjects Within 10% of Baseline / ALT: subjects with >10% decrease from Baseline / ALT: subjects with >10% increase from Baseline / AST: subjects Within 10% of Baseline / AST: subjects with >10% decrease from Baseline / AST: subjects with >10% increase from Baseline / Albumin: subjects Within 10% of Baseline / Albumin: subjects with >10% decrease from Baseline / Albumin: subjects with >10% increase from Baseline: m = 38
Experimental: To further confirm the results of Example 1, a further study was conducted involving more individuals and additional diagnostic biomarkers. Human patients with short bowel syndrome were divided into two groups: a control group (43 total individuals) to receive placebo, and an experimental group (42 total individuals) to receive teduglutide at 0.05 mg/kg/day throughout the study. Patients were treated by subcutaneous injection of placebo or the appropriate dose of teduglutide. Known biomarkers of liver function were monitored every four weeks, for 24 weeks. The liver biomarkers tested included albumin, gamma glutamyl transferase, total bilirubin, ALT and AST and ALP. Before administration of placebo or teduglutide, diagnostic biomarker levels were tested to establish a baseline for each individual.
To determine the effect of GLP-2 on the levels of the diagnostic biomarkers, the average level of each biomarker was measured for the placebo and teduglutide treated groups for each visit. Furthermore, the average change from baseline was calculated using the established baseline values. For FIGS. 17-28, p-values were calculated using the t-test.
P values are provided, which were calculated for each distribution of biomarker changes for each week using the chi-squared test.

CC[C@H](C)[C@H](NC(=O)[C@H](Cc1ccccc1)NC(=O)[C@H](CC(=O)O)NC(=O)[C@H](CCCNC(=N)N)NC(=O)[C@H](C)NC(=O)[C@H](C)NC(=O)[C@H](CC(C)C)NC(=O)[C@H](CC(N)=O)NC(=O)[C@H](CC(=O)O)NC(=O)[C@H](CC(C)C)NC(=O)[C@@H](NC(=O)[C@@H](NC(=O)[C@H](CC(N)=O)NC(=O)[C@H](CCSC)NC(=O)[C@H](CCC(=O)O)NC(=O)[C@H](CC(=O)O)NC(=O)[C@H](CO)NC(=O)[C@H](Cc1ccccc1)NC(=O)[C@H](CO)NC(=O)CNC(=O)[C@H](CC(=O)O)NC(=O)CNC(=O)[C@@H](N)Cc1c[nH]cn1)[C@@H](C)O)[C@@H](C)CC)C(=O)N[C@@H](CC(N)=O)C(=O)N[C@@H](Cc1c[nH]c2ccccc12)C(=O)N[C@@H](CC(C)C)C(=O)N[C@H](C(=O)N[C@@H](CCC(N)=O)C(=O)N[C@H](C(=O)N[C@@H](CCCCN)C(=O)N[C@H](C(=O)N[C@H](C(=O)N[C@@H](CC(=O)O)C(=O)O)[C@@H](C)O)[C@@H](C)CC)[C@@H](C)O)[C@@H](C)CC [teduglutide]
Alkaline Phosphatase: subjects Within 10% of Baseline (Week 16): 7 (18.4%) n (%)
Alkaline Phosphatase: subjects with >10% decrease from Baseline (Week 16): 23 (60.5%) n (%)
Alkaline Phosphatase: subjects with >10% increase from Baseline (Week 16): 8 (21.1%) n (%)
Bilirubin: subjects Within 10% of Baseline (Week 16): 5 (13.2%) n (%)
Bilirubin: subjects with >10% decrease from Baseline (Week 16): 24 (63.2%) n (%)
Bilirubin: subjects with >10% increase from Baseline (Week 16): 9 (23.7%) n (%)
ALT Change from Baseline, Max (Week 20): 24 U/L
ALT Change from Baseline, Median (Week 20): −6.5 U/L
ALT Change from Baseline, Min (Week 20): −55 U/L
ALT Observed Value, Max (Week 20): 149 U/L
ALT Observed Value, Min (Week 20): 5 U/L
AST Change from Baseline, Max (Week 20): 10 U/L
AST Change from Baseline, Mean (Week 20): −4.2 U/L
AST Change from Baseline, Median (Week 20): −2.5 U/L
AST Change from Baseline, Min (Week 20): −38 U/L
AST Observed Value, Max (Week 20): 77 U/L
AST Observed Value, Min (Week 20): 10 U/L
Albumin Change from Baseline, Max (Week 20): 4 g/L
Albumin Change from Baseline, Mean (Week 20): -0.6 g/L
Albumin Change from Baseline, Median (Week 20): -1 g/L
Albumin Change from Baseline, Min (Week 20): -8 g/L
Albumin Observed Value, Max (Week 20): 49 g/L
Albumin Observed Value, Median (Week 20): 43 g/L
Albumin Observed Value, Min (Week 20): 33 g/L
Alkaline Phosphatase Change from Baseline, Max (Week 20): 77 U/L
Alkaline Phosphatase Change from Baseline, Min (Week 20): −117 U/L
Alkaline Phosphatase Observed Value, Max (Week 20): 303 U/L
Alkaline Phosphatase Observed Value, Min (Week 20): 54 U/L
Bilirubin Change from Baseline, Max (Week 20): 2.8 µmol/L
Bilirubin Change from Baseline, Median (Week 20): -1.7 µmol/L
Bilirubin Change from Baseline, Min (Week 20): -25.5 µmol/L
Bilirubin Observed Value, Max (Week 20): 31.9 µmol/L
Bilirubin Observed Value, Min (Week 20): 3.7 µmol/L
Gamma Glutamyl Transferase Change from Baseline, Max (Week 20): 57 U/L
Gamma Glutamyl Transferase Change from Baseline, Mean (Week 20): −9.6 U/L
Gamma Glutamyl Transferase Change from Baseline, Median (Week 20): −8 U/L
Gamma Glutamyl Transferase Change from Baseline, Min (Week 20): −146 U/L
Gamma Glutamyl Transferase Observed Value, Max (Week 20): 261 U/L
Gamma Glutamyl Transferase Observed Value, Min (Week 20): 8 U/L
ALT: subjects Within 10% of Baseline (Week 20): 10 (26.3%) n (%)
ALT: subjects with >10% decrease from Baseline (Week 20): 23 (60.5%) n (%)
ALT: subjects with >10% increase from Baseline (Week 20): 5 (13.2%) n (%)
AST: subjects Within 10% of Baseline (Week 20): 11 (28.9%) n (%)
AST: subjects with >10% decrease from Baseline (Week 20): 20 (52.6%) n (%)
AST: subjects with >10% increase from Baseline (Week 20): 7 (18.4%) n (%)
Albumin: subjects Within 10% of Baseline (Week 20): 37 (97.4%) n (%)
Albumin: subjects with >10% decrease from Baseline (Week 20): 1 (2.6%) n (%)
Albumin: subjects with >10% increase from Baseline (Week 20): 0 n (%)
Alkaline Phosphatase: subjects Within 10% of Baseline (Week 20): 12 (31.6%) n (%)
Alkaline Phosphatase: subjects with >10% decrease from Baseline (Week 20): 23 (60.5%) n (%)
Alkaline Phosphatase: subjects with >10% increase from Baseline (Week 20): 3 (7.9%) n (%)
Bilirubin: subjects Within 10% of Baseline (Week 20): 5 (13.2%) n (%)
Bilirubin: subjects with >10% decrease from Baseline (Week 20): 25 (65.8%) n (%)
Bilirubin: subjects with >10% increase from Baseline (Week 20): 8 (21.1%) n (%)
ALT Change from Baseline, Max (Week 24): 21 U/L
ALT Change from Baseline, Median (Week 24): −7.5 U/L
ALT Change from Baseline, Min (Week 24): −60 U/L
ALT Observed Value, Max (Week 24): 91 U/L
ALT Observed Value, Min (Week 24): 7 U/L
AST Change from Baseline, Max (Week 24): 14 U/L
AST Change from Baseline, Mean (Week 24): −5.8 U/L
AST Change from Baseline, Median (Week 24): −5 U/L
AST Change from Baseline, Min (Week 24): −47 U/L
AST Observed Value, Max (Week 24): 73 U/L
AST Observed Value, Median (Week 24): 23 U/L
AST Observed Value, Min (Week 24): 11 U/L
Albumin Change from Baseline, Max (Week 24): 3 g/L
Albumin Change from Baseline, Mean (Week 24): -0.4 g/L
Albumin Change from Baseline, Median (Week 24): 0 g/L
Albumin Change from Baseline, Min (Week 24): -8 g/L
Albumin Observed Value, Max (Week 24): 48 g/L
Albumin Observed Value, Median (Week 24): 42 g/L
Albumin Observed Value, Min (Week 24): 33 g/L
Alkaline Phosphatase Change from Baseline, Max (Week 24): 33 U/L
Alkaline Phosphatase Change from Baseline, Min (Week 24): −122 U/L
Alkaline Phosphatase Observed Value, Max (Week 24): 328 U/L
Alkaline Phosphatase Observed Value, Median (Week 24): 88 U/L
Alkaline Phosphatase Observed Value, Min (Week 24): 49 U/L
Bilirubin Change from Baseline, Max (Week 24): 3.3 µmol/L
Bilirubin Change from Baseline, Min (Week 24): -26.1 µmol/L
Bilirubin Observed Value, Max (Week 24): 31.3 µmol/L
Bilirubin Observed Value, Median (Week 24): 6.8 µmol/L
Bilirubin Observed Value, Min (Week 24): 2.5 µmol/L
Gamma Glutamyl Transferase Change from Baseline, Max (Week 24): 46 U/L
Gamma Glutamyl Transferase Change from Baseline, Median (Week 24): −6 U/L
Gamma Glutamyl Transferase Change from Baseline, Min (Week 24): −144 U/L
Gamma Glutamyl Transferase Observed Value, Max (Week 24): 228 U/L
Gamma Glutamyl Transferase Observed Value, Min (Week 24): 7 U/L
ALT: subjects Within 10% of Baseline (Week 24): 10 (26.3%) n (%)
ALT: subjects with >10% decrease from Baseline (Week 24): 24 (63.2%) n (%)
ALT: subjects with >10% increase from Baseline (Week 24): 4 (10.5%) n (%)
AST: subjects Within 10% of Baseline (Week 24): 8 (21.1%) n (%)
AST: subjects with >10% decrease from Baseline (Week 24): 24 (63.2%) n (%)
AST: subjects with >10% increase from Baseline (Week 24): 6 (15.8%) n (%)
Albumin: subjects Within 10% of Baseline (Week 24): 36 (94.7%) n (%)
Albumin: subjects with >10% decrease from Baseline (Week 24): 2 (5.3%) n (%)
Albumin: subjects with >10% increase from Baseline (Week 24): 0 n (%)
Alkaline Phosphatase: subjects Within 10% of Baseline (Week 24): 9 (23.7%) n (%)
Alkaline Phosphatase: subjects with >10% decrease from Baseline (Week 24): 23 (60.5%) n (%)
Alkaline Phosphatase: subjects with >10% increase from Baseline (Week 24): 6 (15.8%) n (%)
Bilirubin: subjects Within 10% of Baseline (Week 24): 6 (15.8%) n (%)
Bilirubin: subjects with >10% decrease from Baseline (Week 24): 26 (68.4%) n (%)
Bilirubin: subjects with >10% increase from Baseline (Week 24): 6 (15.8%) n (%)
